The subject of data set [1] is Streptococcus mitis. The conditions noted are these: antibiotic-susceptible clinical isolate.
The subject of data set [2] is Clostridium difficile.
The test system of data set [3] is Streptococcus constellatus. Conditions: antibiotic-susceptible clinical isolate.
Data set [4] deals with Prevotella denticola. Conditions: clinical isolate.
Data set [5] deals with Fusobacterium nucleatum. The conditions noted are these: clinical isolate.
Data set [6] has as its system Veillonella spp. Conditions: clinical isolate.
Data set [7] has as its system Clostridium bifermentans. The conditions noted are these: ATCC 638.
A short description of data set [8]: Stability in simulated intestinal juice (FaSSIF). In kind it is in vitro ADME. Conditions: FaSSIF pH 6.5, pancreatin 1%, prodrug 20 μg/mL. How it is done: To avoid direct interaction between the active drug and the gut microfloral population, the prodrug should not undergo premature chemical or enzymic cleavage back to the parent dug while within the gut lumen. To confirm this the prodrugs were incubated with USP SGF (simulated gastric fluid), FeSSIF (fed state simulated intestinal fluid) and FaSSIF (fasted state simulated intestinal fluid) and remaining prodrug and any generated active drug assayed by use of a qualified LC-MS/MS analytical method.
Method—Prodrug (20 μg/mL) in the FaSSIF cocktail comprising sodium taurocholate 3 mM, lecithin 0.75 mM, NaOH 8.7 mM, NaH2PO4. H2O 28.7 mM, NaCl 106 mM, pancreatin 1% (overall pH 6.5) was incubated for 2 h at 37° C. After acidifying the incubation to stop any reaction the amount of prodrug remaining and drug generated were determined using a qualified LC-MS/MS method.
To minimize the direct inhibitory action of this drug on gastric emptying/gut motility—and resultant nausea—the prodrug should not undergo premature chemical or enzymic cleavage back to the parent drug while within the gut lumen. To confirm this, the prodrugs were incubated with USP SGF (simulated gastric fluid), FeSSIF (fed state simulated intestinal fluid) and FaSSIF (fasted state simulated intestinal fluid) and remaining prodrug, and any generated active drug, assayed by use of a qualified LC-MS/MS analytical method.
Prodrug (20 μg/mL) in the FaSSIF cocktail comprising sodium taurocholate 3 mM, lecithin 0.75 mM, NaOH 8.7 mM, NaH2PO4. H2O 28.7 mM, NaCl 106 mM, pancreatin 1% (overall pH 6.5) was incubated for 2 h at 37° C. After acidifying the incubation to stop any reaction the amount of prodrug remaining and drug generated were determined using a qualified LC-MS/MS method.
To avoid direct interaction between the active drug and the gut, the prodrug should not undergo premature chemical or enzymic cleavage back to the parent dug while within the gut lumen. To confirm this the prodrugs were incubated with USP SGF (simulated gastric fluid), FeSSIF (fed state simulated intestinal fluid) and FaSSIF (fasted state simulated intestinal fluid) and remaining prodrug and any generated active drug assayed by use of a qualified LC-MS/MS analytical method.

Data set [9] has as its system Streptococcus oralis. Conditions: antibiotic-susceptible clinical isolate.
Data set [10] has as its system Streptococcus agalactiae. Conditions: antibiotic-susceptable clinical isolate.
Data set [11] concerns Peptostreptococcus magnus. The conditions noted are these: clinical isolate.
A short description of data set [12]: Stability in USP simulated gastric juice. It is filed as in vitro ADME. Conditions: USP SGF pH 1.1, pepsin […], prodrug 20 μg/mL. The source says:
To minimize the direct inhibitory action of this drug on gastric emptying/gut motility—and resultant nausea—the prodrug should not undergo premature chemical or enzymic cleavage back to the parent drug while within the gut lumen.

The conditions of data set [13]: relative bioavailability of clindamycin vs dosing clindamycin itself, male rats, mean. How it is done: Serial tail vein blood samples were subsequently collected via an indwelling cannuala into EDTA tubes containing a stabilising cocktail (including 6 mg/mL NaF) to prevent post collection enzymic hydrolysis of the prodrug.
In data set [14] the test system is Prevotella intermedia. The conditions noted are these: clinical isolate.
The subject of data set [15] is Porphyromonas assacharolyticus. Conditions: clinical isolate.
In data set [16] the test system is Peptostreptococcus magnus. Nature of the data set: microbe, parasite or virus in culture. Conditions: Finegoldia magna, read-out: Minimum inhibitory concentration.
Data set [17] has as its system Veillonella spp. Nature of the data set: microbe, parasite or virus in culture. Conditions: read-out: Minimum inhibitory concentration.
Data set [18] deals with Staphylococcus saprophyticus. Kind of data set: microbe, parasite or virus in culture. The conditions noted are these: read-out: Minimum inhibitory concentration.
Data set [19] deals with Listeria monocytogenes. Kind of data set: microbe, parasite or virus in culture. The conditions noted are these: read-out: Minimum inhibitory concentration.
The subject of data set [20] is Porphyromonas endodontalis. Kind of data set: microbe, parasite or virus in culture. Conditions: read-out: Minimum inhibitory concentration.
Data set [21] deals with Streptococcus constellatus. Nature of the data set: microbe, parasite or virus in culture. Conditions: read-out: Minimum inhibitory concentration.
For data set [22], the system named is Clostridium sordellii. Kind of data set: microbe, parasite or virus in culture. Conditions: Paraclostridium sordellii, NCTC13356, read-out: Minimum inhibitory concentration.
In data set [23] the test system is Peptostreptococcus micros. Kind of data set: microbe, parasite or virus in culture. The conditions noted are these: Parvimonas micra, read-out: Minimum inhibitory concentration.
The subject of data set [24] is Fusobacterium necrophorum. Kind of data set: microbe, parasite or virus in culture. The conditions noted are these: read-out: Minimum inhibitory concentration.
The subject of data set [25] is Clostridium difficile. Kind of data set: microbe, parasite or virus in culture. Conditions: Clostridioides difficile.
Data set [26] has as its system Enterococcus faecalis. Kind of data set: microbe, parasite or virus in culture. Conditions: ATCC29212, read-out: Minimum inhibitory concentration.
Where [27] appears, read: antibiotic-susceptible clinical isolate.
[28] abbreviates: ribotype 002 - clinical isolate.
Where [29] appears, read: ribotype 011 - clinical isolate.
The mark [30] stands for this setting: ribotype 027 - clinical isolate.
Where [31] appears, read: ribotype 050 - clinical isolate.
The mark [32] stands for this setting: ribotype 176 - clinical isolate.

≈ marks a conversion by molar mass, not a printed value. Structures can show the parent of a compound that is named as a salt. Where two headings read alike, the source gives them in different places.

With `CCCC1CC(C(=O)NC(C(C)Cl)C2OC(SC)C(OC(=O)CCCC(=O)Nc3ccc(C(=O)O)cc3)C(O)C2O)N(C)C1.O=C(O)C(F)(F)F` (stereo not drawn) [Clindamycin glutaryl PABA ester, Clindamycin-2-(glutaryl-PABA) ester trifluoroacetate], the Minimum inhibitory concentration in data set [1] was 0.5 µg/mL; in data set [2] (ATCC 700057), above 64 µg/mL; in data set [2] (NCTC 13366 - NAP1/027) it was above 64 µg/mL; in [2] (setting [27]), above 64 µg/mL; in data set [2] (setting [28]) it was above 64 µg/mL; in data set [2] (setting [29]), above 64 µg/mL. For the same compound, the Minimum inhibitory concentration in data set [2] (setting [30]) is above 64 µg/mL; in data set [2] (setting [31]) it was above 64 µg/mL; in [2] (setting [32]), above 64 µg/mL; in data set [3], 2 µg/mL; in data set [4] it was 4 µg/mL; in data set [5] it was 2 µg/mL. The Minimum inhibitory concentration was found to be 1 µg/mL in [6]; 32 µg/mL in data set [7]; 0.5 µg/mL in data set [9]; 2 µg/mL in data set [10]; 64 µg/mL in data set [11]; 0.12 µg/mL in [14]. In [15], this compound registered a Minimum inhibitory concentration of 0.12 µg/mL. For the same compound, in data set [8], the “Simulated intestinal juice (2 h, 37° C.) (FaSSIF) % active drug generated” value is recorded as below 1%. For the same compound, the “Simulated gastric juice (1 h, 37° C.) % active drug generated” value in data set [12] is below 1%. Moreover, the Frel in data set [13] and in data set [13] (listed as Clindamycin glutaryl PABA ethyl ester) was 51% each time.
For `CCCC1CC(C(=O)NC(C(C)Cl)C2OC(SC)C(OC(=O)CCC(=O)N[C@H](C(=O)O)C(C)C)C(O)C2O)N(C)C1` (stereo partly drawn) [Clindamycin succinyl valine ester, Clindamycin-2-[succinyl-(S)-valine]ester trifluoroacetate], the Minimum inhibitory concentration in data set [1] was 0.25 µg/mL; in data set [2] (ATCC 700057), above 64 µg/mL; in data set [2] (NCTC 13366 - NAP1/027), 64 µg/mL; in data set [2] (setting [27]), above 64 µg/mL; in data set [2] (setting [28]), 64 µg/mL; in data set [2] (setting [29]), 64 µg/mL. Besides, the Minimum inhibitory concentration is 64 µg/mL in [2] (setting [30]); 32 µg/mL in data set [2] (setting [31]); above 64 µg/mL in data set [2] (setting [32]); 1 µg/mL in data set [3]; 1 µg/mL in [4]; 0.25 µg/mL in data set [5]. Moreover, the Minimum inhibitory concentration is 0.5 µg/mL in data set [6]; 4 µg/mL in data set [7]; 0.25 µg/mL in [9]; 1 µg/mL in [10]; 16 µg/mL in data set [11]; 0.12 µg/mL in [14]. The compound also had a Minimum inhibitory concentration in data set [15] of 0.12 µg/mL. Besides, in [8], the “Simulated intestinal juice (2 h, 37° C.) (FaSSIF) % active drug generated” value is listed as below 1%. In addition, the “Simulated gastric juice (1 h, 37° C.) % active drug generated” value in data set [12] is reported as below 1%. Further, the Frel in [13] came to 8%.
`CCC[C@@H]1C[C@@H](C(=O)N[C@@H]([C@H]2O[C@H](SC)[C@H](O)[C@@H](O)[C@H]2O)[C@H](C)Cl)N(C)C1` [Clindamycin, clindamycin, reference compound]: the MIC in data set [16] was 0.5 µg/mL (≈ 1.18 µM); in data set [17], at most 0.03 µg/mL; in data set [18] it was 0.06 µg/mL (≈ 0.141 µM); in [19], 1 µg/mL (≈ 2.35 µM); in [20] it was at most 0.03 µg/mL; in data set [21], at most 0.03 µg/mL. For the same compound, the MIC in data set [22] was 0.5 µg/mL (≈ 1.18 µM); in data set [23], 0.06 µg/mL (≈ 0.141 µM); in data set [24] it was at most 0.03 µg/mL; in data set [25] (ATCC700057, read-out: Minimum inhibitory concentration, ATCC 700057), 8 µg/mL (≈ 18.8 µM); in [25] (NCTC13366, read-out: Minimum inhibitory concentration, NCTC 13366 - NAP1/027) it was 4 µg/mL (≈ 9.41 µM); in data set [25] (read-out: Minimum inhibitory concentration, antibiotic-susceptible clinical isolate), 8 µg/mL (≈ 18.8 µM). Further, the MIC in [25] (read-out: Minimum inhibitory concentration, ribotype 002 - clinical isolate) came out at 2 µg/mL (≈ 4.71 µM); in data set [25] (read-out: Minimum inhibitory concentration, ribotype 011 - clinical isolate) it was 4 µg/mL (≈ 9.41 µM); in data set [25] (read-out: Minimum inhibitory concentration, ribotype 027 - clinical isolate), 4 µg/mL (≈ 9.41 µM); in data set [25] (read-out: Minimum inhibitory concentration, ribotype 050 - clinical isolate), 4 µg/mL (≈ 9.41 µM); in data set [25] (read-out: Minimum inhibitory concentration, ribotype 176 - clinical isolate), 4 µg/mL (≈ 9.41 µM); in data set [26], 8 µg/mL (≈ 18.8 µM).

These data come from patent US20120202756A1, “USE OF PRODRUGS TO AVOID GI MEDIATED ADVERSE EVENTS” (priority 2009, published 2012).
